Reference: patent US20060198882A1, “Stable liposomes or micelles comprising a sphinolipid and a peg-lipopolymer” (priority 2003, published 2006)
Several values for one entry are separate records, joined by “and”; a condition that tells them apart may be missing. Identical values can stand only once. Like-named read-outs stand apart in the source and are kept apart here.

Tests used:
[1] = Partition in the two phases of the Dole system; assay type: physicochemical
[2] = Partition in the two phases of the Dole system; assay type: physicochemical; remark: listed apart in the source
Procedure: The distribution of the C18 sphingosine-based ceramides with different acyl chain lengths and of DMS between the polar phase and respectively less polar phase (as defined below) of the Dole two phase system was determined. […] The different ceramides included: short (C2 Cer and C4 Cer), medium (C6 Cer and C8 Cer), long (C16 Cer). […] In: Liposome Technology 2nd Edn., G Gregoriadis (Ed.) CRC Press, Boca Raton, 1993, vol. 1, pp: 527-616]. The amount of each of the lipids used in each of the two phases was measured by thin-layer chromatography (TLC). For ceramide quantification TLC was developed in a solvent system containing chloroform/methanol (95:5 v/v). For DMS quantification TLC was developed in a solvent system containing chloroform/methanol/ammonia (89/9/2 v/v). Further, the TLC plate was sprayed with Copper sulfate reagent composed of 100 g anhydrous copper sulfate containing 80 ml of phosphoric acid (85%), %) dissolved in 600 ml of DDW. Copper sulphate reagent was applied to the plates by spraying, then heated and lipids appeared as dark brown spot. […] Quantity of ceramides in each phase was calculated from a standard curve of appropriate ceramide. […] (1993)Supra]. The distribution between the two Dole system phases was determined by the equation (as exemplified for ceramide): [formula] [formula] Where Kp denotes the partition coefficient of a given lipid or amphiphile referred to in the equation as lipid; Cer denotes ceramide; up is an abbreviation for the heptane rich low polarity upper phase and lp is an abbreviation for the polar isopropanol water rich lower phase.

[3] = test system: C-26; experiment: Methylene blue assay of cell survival; assay type: cell-based, human; details: Table 8B
Description: (§1) Several tumor cell lines in monolayers were used. A human ovarian carcinoma cell line (OV-1063), established at the Hadassah University Hospital, a human colon carcinoma cell line (C-26), a DOX-sensitive M-109S ([…]), and a DOX-resistant, M-109R ([…]). All cell lines were maintained in RPMI-1640 medium supplemented with 10% FCS, antibiotics, and glutamine. All culture medium components were purchased from Biological Industries (Beit-HaEmek, Israel). Both cell lines were maintained at 37° C. in a water-jacketed CO2 incubator.
(§2) a) Various ceramides (Cer) with different chain lengths: short (C2 Cer and C4 Cer), medium (C6 Cer and C8 Cer), and long (C16 Cer) were first dissolved in 100% ethanol to a concentration of 30 mM, added to a serum-containing medium and mixed immediately. The final ethanol concentration in the serum-containing culture medium ranged from 0.1-0.5% (depending on the type of ceramide (Cer)).
(§3) b) Various ceramides with different chain lengths: short C2 Cer, medium C6 Cer, and long C16 Cer were dissolved in ethanol:dodecane (98:2 v/v) to a concentration of 30 mM and added to serum-free medium and mixed. Final concentrations of the ethanol and dodecane in the culture medium containing 10% of FCS ranged from 0.098-0.49% and 0.002-0.01%, respectively, depending on the type of ceramide.
(§4) The cytotoxicity of the examined assemblies comprising ceramide was tested by the methylene blue ([…]) staining assay [Gorodetsky, R. et al. Int. J. Cancer. 75:635-642 (1998)]. A known number of exponentially growing cells in 200 μL of medium were plated in 96-microwell, flat-bottomed plates. For each of the variants tested, 4 wells were used. Following 24 hr of incubation in culture, 20 μL of different concentrations of the examined assemblies were added to each well containing untreated cells.
(§5) The following controls were used: Citrate buffer (5 mM, pH 7); Ethanol solution in medium RPMI 1640 (final concentration of 0.1%); A solution RPMI 1640 of ethanol:dodecane (98:2 […]) at a final concentration of 0.1% and 0.2%, respectively.
(§6) Cells were exposed to assemblies for 4, 24, 72 or 96 hr. At the end of assembly exposure, for a fixed time interval, the drug-treated cells, as well as parallel control cells, were washed, and the incubation continued in fresh medium until termination of the experiment. Following 72 hr or 96 hr of growth, cells were fixed by adding 50 μL of 2.5% glutaraldehyde to each well for 15 min. Fixed cells were rinsed 10 times with deionized water and once with borate buffer (0.1 M, pH 8.5), dried, and stained with MB (100 μL of 1% solution in 0.1 M borate buffer, pH 8.5) for 1 h at room temperature (r.t.). Stained cells were rinsed thoroughly with de-ionized water to remove any non-cell-bound dye and then dried. The MB bound to the fixed cells was extracted by incubation at 37° C. with 200 μL of 0.1 N HCl for 1 h, and the net optical density of the dye in each well was determined by a plate spectrophotometer (Labsystems Multyskan Bichromatic, Finland) at 620 nm.

[4] = test system: OV-1063; experiment: Methylene blue assay of cell survival; assay type: cell-based, human; details: Table 8B
Description: as §1, §2, §3, §4, §5, §6

[5] = test system: OV-1063 cells; experiment: Apoptosis by chromatin morphology (Hoechst-33342, confocal microscopy); assay type: cell-based, human; details: 24 hr
Procedure: (§7) a) The morphology of chromatin was assessed by staining with Hoechst-33342 obtained from Calbiochem (La Jolla, Calif.), a molecule which when reside in the minor groove of the DNA strand enhance its fluorescence intensity and, therefore, it is preferentially stains dsDNA [Jouvet, P. Mol. Biol. Cell 11:1919-1932 (2000)]. Briefly, samples containing 5*10^5 cells were cultured on 6-well plates covered with a glass coverslip. After treatment of cells with IC50 of drugs, cells were washed with PBS and fixated with 4% formaldehyde. After that cells were stained with Hoechst-33342 (5 μg/ml) and washed. Thereafter, glass coverslip was placed on a glass slide and photographed using a CLMS.

[6] = test system: C-26 cells; experiment: as above; assay type: cell-based, human; details: 24 hr
Procedure: as §7

[7] = Surface-pressure area isotherms; assay type: physicochemical; details: for minimal area per molecule: constant pressure of 20 mN/m; for collapse point pressure of monolayer: pure water sub-phase; for Area/molecule: table, monolayer on pure water sub-phase
Procedure: The tested ceramides (C2 Cer, C4 Cer, C6 Cer, C8 Cer, C16 Cer) were dried in vacuum overnight, weighted and dissolved in hexane/isopropanol (3:2 vol.) to make the following stock solutions.
The surface-pressure/area isotherms were obtained on pure water sub-phase (similar isotherms were obtained on 140 mM NaCl). Barrier speed during compression was […] for all monolayers.
The minimal area per molecule of different ceramides (C2 Cer, C4 Cer, C6 Cer, C8 Cer, C16 Cer) was calculated at the constant pressure of 20 mN/m. […] The area per molecule of C2 Cer, C4 Cer, C8 Cer, C16 Cer was about 38, 46, 45.5, and 37.5^2, respectively.

[8] = read-out: IC50 (μM), 24 hr C-26
[9] = read-out: IC50 (μM), 72 hr C-26
[10] = read-out: IC50 (μM), 4 hr OV-1063
[11] = read-out: IC50 (μM), 24 hr OV-1063
[12] = read-out: IC50 (μM), 72 hr OV-1063

| Liposome formation (being a liposome forming lipid by itself) [1] | % of lipid in heptane-rich upper phase ([2]; Dole two phase system) | % of lipid in isopropanol/water lower phase ([2]; Dole two phase system) [%] | Kp (heptane rich/isopropanol and water rich partition coefficient) ([2]; Dole two phase system) | Kp (heptane rich/isopropanol and water rich partition coefficient) [2] | monolayer stability [7] | minimal area per molecule [7] [Å^2] | collapse point pressure of monolayer [7] | Area/molecule [7] [A^2] | Compound | IC50 ([3]; read-out: IC50 (μM), 4 hr C-26) [µM] | IC50 [3, 8] [µM] | IC50 [3, 9] [µM] | IC50 [4, 10] [µM] | IC50 [4, 11] [µM] | IC50 [4, 12] [µM] | Apoptotic OV-1063 cells (% of total cell number), 24 hr [5] [%] | Apoptotic C-26 cells (% of total cell number), 24 hr [6] [%] |
| --- | --- | --- | --- | --- | --- | --- | --- | --- | --- | --- | --- | --- | --- | --- | --- | --- | --- |
| Yes | 36% | 64 | 1.13 | – | – | – | – | – | hydrogenated soybean phosphatidylcholine [HSPC] | – | – | – | – | – | – | – | – |
| No | 32% and 31.5% | 68.5 | – | 0.92 | almost as stable as all the others | ~46 | about 42 mN/m | 46 | CCCCCCCCCCCCC/C=C/[C@@H](O)[C@H](CO)NC(=O)CCC [C4Cer, N-tetranoyl-D-erythro-sphingosine] | 15.5 ± 3.5 | 6.25 ± 0.35 | 3.75 ± 0.35 | 10 ± 2.7 | 5.9 ± 0.14 | 3.95 ± 0.6 | 58 | 10 |
| No | 72% | 28 | – | 5.25 | – | ~45.5 | about 42 mN/m | 45.5 | CCCCCCCCCCCCC/C=C/[C@@H](O)[C@H](CO)NC(=O)CCCCCCC [C8Cer, N-octanoyl-D-erythro-sphingosine] | > 40 | 23 ± 1.4 | 21.5 ± 2.1 | > 40 | 23.7 ± 1 | 19 ± 1.4 | – | – |
| Yes | 15.2% | 84.8 | 0.35 | – | – | – | – | – | Egg phosphatidylcholine [EPC] | – | – | – | – | – | – | – | – |
